# Data reported in ChEMBL document CHEMBL1156528, “Acetyl-lysine analog peptides as mechanistic probes of protein deacetylases” (J Biol Chem, 2007).
# Target: NAD-dependent protein deacetylase HST2 (Saccharomyces cerevisiae S288c) (UniProt P53686)
# Assay: Ratio of Vmax to Km for Saccharomyces cerevisiae Hst2
# Chain of NAD-dependent protein deacetylase HST2 (Saccharomyces cerevisiae S288c) (P53686 whole entry): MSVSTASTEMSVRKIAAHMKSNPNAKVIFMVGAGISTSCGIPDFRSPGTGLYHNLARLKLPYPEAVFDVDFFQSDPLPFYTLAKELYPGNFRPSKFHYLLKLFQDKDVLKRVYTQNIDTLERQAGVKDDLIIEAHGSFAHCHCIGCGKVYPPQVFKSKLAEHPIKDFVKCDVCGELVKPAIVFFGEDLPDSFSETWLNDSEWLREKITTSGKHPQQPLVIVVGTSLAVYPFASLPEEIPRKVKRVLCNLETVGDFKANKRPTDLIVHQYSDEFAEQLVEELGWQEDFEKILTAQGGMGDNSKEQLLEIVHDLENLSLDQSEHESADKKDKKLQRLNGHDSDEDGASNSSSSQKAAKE
compound,measurement,value
C[C@H](NC(=O)[C@H](CCCCNC(N)=O)NC(=O)CNC(=O)CNC(=O)[C@@H](NC(=O)[C@H](CO)NC(=O)[C@@H](N)CCCCN)[C@@H](C)O)C(=O)N1CCC[C@H]1C(=O)N[C@@H](CCCNC(=N)N)C(=O)N[C@@H](CCCCN)C(=O)N[C@@H](CCC(N)=O)C(=O)O,Ratio,7.4 ×10³ /M/s
